Assays:
aromatase [1] = conditions: cited from earlier work
Measurement of log D = conditions: 1-octanol / phosphate buffered saline pH 7.4
aromatase [2] = test: PET studies in baboon brain; conditions: for brain penetration / uptake in amygdala and preoptic area (PET images): baboon brain; for brain penetration: at 2.5 min; for uptake in amygdala and preoptic area (PET images): images summed 15-90 min after injection
[3] = Measurement of free fraction in plasma; conditions: baboon plasma, room temperature, 10 min incubation
[4] = for appearance of labeled metabolites in plasma: compared with N-1 (11C-1)

| Compound | activity of enantiomer at aromatase (aromatase [1]) | Log D at pH 7.4 (n=4) (Measurement of log D) | brain penetration (aromatase [2]) | uptake in amygdala and preoptic area (PET images) (aromatase [2]) | Percent unbound in plasma (n=2) [3] | disappearance of the parent labeled compound from plasma ([4]; baboon plasma) | appearance of labeled metabolites in plasma ([4]; baboon plasma) | area under curve (AUC) in plasma normalized to the injected dose ([4]; baboon, over 90 minutes) | effect of pretreatment on [N-methyl-11C]vorozole (11C-1) accumulation in brain (aromatase [2]; baboon, blocking dose 0.1 mg/kg, 5 min prior, all brain regions examined) |
| --- | --- | --- | --- | --- | --- | --- | --- | --- | --- |
| Cn1nnc2ccc([C@@H](c3ccc(Cl)cc3)n3cncn3)cc21 [(R)-vorozole] | inactive | – | – | – | – | – | – | – | – |
| [11CH3]n1nc2ccc([C@H](c3ccc(Cl)cc3)n3cncn3)cc2n1 [^11C-2] | – | 2.9 | 0.02-0.03 %ID/cc | no specific uptake in amygdala and preoptic area | 4.6% | rapid rate of disappearance | very rapid appearance of labeled metabolites | – | – |
| [11CH3]n1nnc2cc(C(c3ccc(Cl)cc3)n3cncn3)ccc21 (centres unmarked) [^11C-3] | – | 2.5 | 0.02-0.03 %ID/cc | no specific uptake in amygdala and preoptic area | 8.1% | – | very rapid appearance of labeled metabolites | similar | – |
| N#Cc1ccc(C(c2ccc(C#N)cc2)n2cncn2)cc1 [letrozole, reference compound] | – | – | – | – | – | – | – | – | reduced |
